In patent US11642344B2, “Cholesteryl ester transfer protein (CETP) inhibitor and pharmaceutical compositions comprising said inhibitor for use in the treatment or prevention of cardiovascular diseases” (NewAmsterdam Pharma B.V., priority 2014, dated 2023):
Read-outs that look alike come from different tables or passages of the source. Blank lines part the entries; values can stand above or below the molecule they belong to.

Legend:
[1] = system: HDL-C, LDL-C; conditions: cited from earlier work
[2] = cited from earlier work; for mineralocorticoid activity: data from phase 2 studies; for off-target effects (in words): clinical trials
[3] = target: T1, CETP (Homo sapiens, UniProt P11597); assay: In vitro CETP assay: 3H-labeled CE transfer from HDL to VLDL/LDL in human plasma; type: biochemical; conditions: 24 h pre-incubation at 37° C.
T1 construct: from tissue; host or cells: plasma of Caucasian male subjects dosed with Compound A or placebo
T1 sequence (P11597 18-493): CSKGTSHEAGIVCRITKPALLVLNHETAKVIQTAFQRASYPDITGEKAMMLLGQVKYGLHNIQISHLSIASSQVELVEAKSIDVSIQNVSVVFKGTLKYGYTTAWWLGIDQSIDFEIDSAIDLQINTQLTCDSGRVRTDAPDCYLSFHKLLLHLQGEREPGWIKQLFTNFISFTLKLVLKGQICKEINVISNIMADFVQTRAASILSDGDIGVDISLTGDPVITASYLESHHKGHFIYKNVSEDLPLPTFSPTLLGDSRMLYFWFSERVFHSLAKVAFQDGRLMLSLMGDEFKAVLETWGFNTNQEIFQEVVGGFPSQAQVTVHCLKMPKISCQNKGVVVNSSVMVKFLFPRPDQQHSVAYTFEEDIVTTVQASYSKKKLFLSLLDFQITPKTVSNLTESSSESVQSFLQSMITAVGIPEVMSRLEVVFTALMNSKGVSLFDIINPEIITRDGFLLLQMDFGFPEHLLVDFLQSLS
Method: Human blood was obtained from healthy male volunteers using 0.1% EDTA as an anticoagulant, and centrifuged at 3,000 rpm for 15 minutes at 4° C. Human plasma was pooled, and then used for the preparation of ^3H-labeled HDL or stored at −80° C. for CETP assay until use. The ^3H-labeled HDL was prepared with human plasma as described by Glenn and Melton (Methods in enzymology. 263; 339-351, 1996). The specific gravity of plasma was measured by a hydrometer, and the density was adjusted to 1.125 g/mL by adding solid KBr. After centrifugation at 100,000 rpm for 4 hours at 12° C. (rotor: 100.4, Optima TLX, Beckman), d>1.125 g/mL fraction was dialyzed against 4 L of Tris-saline-EDTA buffer (TSE; 50 mmol/L Tris, 150 mmol/L NaCl, 2 mmol/L EDTA, pH7.4) for 18 hours at 4° C. [1,2-^3H(N)]-Cholesterol (37 MBq/mL) was added to the dialyzed plasma fraction at the amount of 2 μCi/mL. The tube was tightly sealed under N2 gas stream and incubated at 37° C. for 18 hours with gently stirring to allow esterification of radio-labeled cholesterol by endogenous LCAT. The incubated plasma fraction was adjusted to d=1.21 g/mL with solid KBr, and centrifuged at 100,000 rpm, 12° C. for 5 hours. ^3H-labeled HDL fraction was dialyzed against 2 L of TSE at 4° C. for 18 hours. The radioactivity of ^3H-labeled HDL was counted in a liquid scintillation counter. ^3H-labeled HDL was stored at 4° C. until use.
CETP activity was determined as the rate of ^3H-labeled CE transfer from donor HDL to acceptor VLDL/LDL. Human plasma (94 μL) was pre-incubated with compounds dissolved in DMSO (1 μL) 24 hours at 37° C., and then incubated for 4 hours at 4° C. or 37° C. with 5 μL of ^3H-labeled HDL. One hundred μL of phosphotungstate/MgCl2 reagent (Wako pure chemical) were added to precipitate apoB-containing lipoproteins. After centrifugation at 3,000 rpm for 10 minutes at room temperature, the radioactivity of the supernatant was counted in a liquid scintillation counter. […] The concentration achieving 50% inhibition of CETP activity (IC50) was estimated.

[4] = system: CETP; assay: Ex vivo serum CETP activity after oral administration to hamsters; set-up: species or system Syrian Golden hamsters; conditions: 3 mg/kg oral, suspension in 0.5% CMC, serum 3 hours after administration
Method: Syrian Golden hamsters were used for the experiment after 1-week acclimatization. After an overnight fast, animals were orally given the compound suspension in 0.5% sodium carboxymethylcellulose in a volume of 10 mL/kg. Under deep anesthesia with ether, blood was collected from the abdominal aorta 3 hours after the administration. For preparation of serum, the collected blood was transferred to a plastic tube containing a clot activator, left still for 15 minutes at room temperature and centrifuged. Serum CETP activities were determined immediately.
Ninety-five μL serum were added to 5 μL of […] sodium phosphate buffered saline (pH 7.0) containing 1.5 mM 5,5′-dithio-bis(2-nitrobenzoic acid) in two 96-well V-bottom plates. One plate was incubated at 4° C. and the other was incubated at 37° C. After 18 hours of incubation, each sample was mixed with 100 μL of reagent for precipitation of apolipoprotein B-containing lipoproteins (phosphotungstate/MgCl2 reagent, Wako pure chemical), left still for 10 minutes at room temperature and centrifuged. Total cholesterol (TC) and free cholesterol (FC) in supernatant were measured using commercial kits (Cholesterol E-test wako, and Free Cholesterol E-test wako; Wako pure chemical). Cholesteryl ester (CE) was calculated by subtracting FC from TC. CETP activity was determined by the following formula: CETP activity=[CETP transfer]*/[CE value in 4° C. incubation sample] *CETP transfer=[CE value in 4° C. incubation sample]−[CE value in 37° C. incubation sample] (c) Results

[5] = 200 mg once daily, fasted healthy subjects
[6] = 500 mg once daily monotherapy in patients

SMILES: COc1cc(F)c(C(C)C)cc1-c1ccc(C(F)(F)F)cc1CN1C(=O)O[C@H](c2cc(C(F)(F)F)cc(C(F)(F)F)c2)[C@@H]1C [Anacetrapib, anacetrapib]
decrease LDL-C ([1]; 150 mg once daily, patients): 40% | increase HDL C ([1]; 150 mg once daily, patients): 139% | decrease LDL-C [1, 5]: 36% | increase HDL C [1, 5]: 97% | mineralocorticoid activity [2]: without mineralocorticoid activity

SMILES: CCC(CC)CC1(C(=O)Nc2ccccc2SC(=O)C(C)C)CCCCC1 [Dalcetrapib, dalcetrapib]
effects on LDL-C concentrations ([1]; phase 2b clinical trials): minimal effects | increase HDL-C ([1]; phase 2b clinical trials): 30-40% | off-target effects (in words) [2]: did not appear to exhibit the off-target effects of torcetrapib

SMILES: Cc1cc(C)c2c(c1)[C@@H](N(Cc1cc(C(F)(F)F)cc(C(F)(F)F)c1)c1nnn(C)n1)CCCN2C[C@H]1CC[C@H](C(=O)O)CC1 [Evacetrapib, evacetrapib]
decrease LDL-C [1, 6]: 36% | increase HDL-C [1, 6]: 129% | mineralocorticoid activity [2]: without mineralocorticoid activity

SMILES: CCOC(=O)N1c2ccc(C(F)(F)F)cc2[C@@H](N(Cc2cc(C(F)(F)F)cc(C(F)(F)F)c2)C(=O)OC)C[C@H]1CC [Torcetrapib, torcetrapib]
decrease LDL-C ([1]; dosed at 60 mg, phase 3): 25% | increase HDL-C ([1]; dosed at 60 mg, phase 3): 72% | off-target effects (in words) [2]: increased blood pressure, changes in electrolytes | cardiovascular events and death ([2]; in combination with atorvastatin, compared with atorvastatin alone): unexpected increase in cardiovascular events and death

IC50 [3]: 0.21 µM
SMILES: CCOC(=O)N1c2ccc(C(F)(F)F)cc2C(N(Cc2cc(C(F)(F)F)cc(C(F)(F)F)c2)c2ncc(OCc3ccc(C(=O)O)cc3)cn2)CC1CC (stereo not drawn) [compound 1]
ex vivo (% inhibition) 3 mg/kg (CMC) [4]: 57.5%

IC50 [3]: 0.23 µM
SMILES: CCOC(=O)N1c2ccc(C(F)(F)F)cc2[C@@H](N(Cc2cc(C(F)(F)F)cc(C(F)(F)F)c2)c2ncc(OCc3cccc(C(=O)O)c3)cn2)C[C@H]1CC [compound 2]
ex vivo (% inhibition) 3 mg/kg (CMC) [4]: 38.4%

IC50 [3]: 0.45 µM
SMILES: CCOC(=O)N1c2ccc(C(F)(F)F)cc2C(N(Cc2cc(C(F)(F)F)cc(C(F)(F)F)c2)c2ncc(OCC(=O)NCC(=O)O)cn2)CC1CC (stereo not drawn) [compound 3]
ex vivo (% inhibition) 3 mg/kg (CMC) [4]: 5.4%

IC50 [3]: 0.79 µM
SMILES: CCOC(=O)N1c2ccc(C(F)(F)F)cc2C(N(Cc2cc(C(F)(F)F)cc(C(F)(F)F)c2)c2ncc(OCC(=O)N(C)CC(=O)O)cn2)CC1CC (stereo not drawn) [compound 4]
ex vivo (% inhibition) 3 mg/kg (CMC) [4]: 8.6%

IC50 [3]: 1.7 µM
SMILES: CCOC(=O)N1c2ccc(C(F)(F)F)cc2C(N(Cc2cc(C(F)(F)F)cc(C(F)(F)F)c2)c2ncc(OCC(=O)N3CCCC3C(=O)O)cn2)CC1CC (stereo not drawn) [compound 5]
ex vivo (% inhibition) 3 mg/kg (CMC) [4]: 6.2%

IC50 [3]: 0.22 µM
SMILES: CCOC(=O)N1c2ccc(C(F)(F)F)cc2C(N(Cc2cc(C(F)(F)F)cc(C(F)(F)F)c2)c2ncc(S(=O)(=O)CCCC(=O)O)cn2)CC1CC (stereo not drawn) [compound 6]
ex vivo (% inhibition) 3 mg/kg (CMC) [4]: 13.9%
